How the values were obtained:
Assay in all cases: microbe, parasite or virus in culture
Assay type in all cases: cell-based
[1] = tested on: Escherichia coli SMART 640; details: SMART640, IMP-14, CTX-M-27, OXA-10, TAN/XER fixed at 4 µg/mL, XER 8 µg/mL in MEM-XER, read-out: Minimal inhibitory concentration
Method: (§1) Most isolates and their respective β-lactamase content were characterized by whole-genome sequencing.
(§2) To assess the inhibitory potency of XER, susceptibility testing was performed by broth microdilution method, determining the minimal inhibitory concentrations (MICs) of different antibiotics or antibiotic plus β-lactamase inhibitor combinations, including cefepime (FEP), imipenem (IPM), meropenem (MEM), and their combinations with XER (FEP-XER, IPM-XER, and MEM-XER). All data obtained with XER-based combinations were compared with data with TAN-based combinations, FEP-TAN, IPM-TAN, and MEM-TAN ([16]). FEP was purchased from Sigma-Aldrich (Saint-Louis, USA), whereas MEM was from HuiChem (Shanghai, China). […] MICs were determined in triplicate in cation-adjusted Mueller-Hinton (MH) broth (Bio-Rad, Marnes-la-Coquette, France) according to the CLSI guidelines ([53]). The results were interpreted according to the decrease in MIC value for the same antibiotic or combination of the corresponding recombinant strain producing the MBL enzyme. […] In a recent phase I clinical evaluation, XER was combined with cefiderocol. However, as this latter β-lactam substrate is known to be poorly hydrolyzed by IMP enzymes, it was not considered for the evaluation of XER inhibitory activity in this study. Instead, carbapenems were used as a substrate to evaluate the β-lactamase IMP activity in the presence or absence of XER and TAN, as it was deemed more specific for the IMP carbapenemase activity.

[2] = tested on: Pseudomonas aeruginosa PA13; details: IMP-15, TAN/XER fixed at 4 µg/mL, XER 8 µg/mL in MEM-XER, read-out: Minimal inhibitory concentration
Method: as §1, §2

[3] = tested on: Enterobacter hormaechei subsp. steigerwaltii SMART 1234; details: read-out: Minimal inhibitory concentration
Method: as §1, §2

[4] = tested on: Klebsiella pneumoniae SMART 1133; details: SMART1133, IMP-1, CTX-M-2, TAN/XER fixed at 4 µg/mL, XER 8 µg/mL in MEM-XER, read-out: Minimal inhibitory concentration
Method: as §1, §2

[5] = tested on: Pseudomonas aeruginosa PA10; details: IMP-2, TAN/XER fixed at 4 µg/mL, XER 8 µg/mL in MEM-XER, read-out: Minimal inhibitory concentration
Method: as §1, §2

[6] = tested on: Klebsiella pneumoniae SMART 1134; details: IMP-34, CTX-M-2, TAN/XER fixed at 4 µg/mL, XER 8 µg/mL in MEM-XER; for MIC: Klebsiella pneumoniae, SMART1134, read-out: Minimal inhibitory concentration
Method: as §1, §2

[7] = tested on: Klebsiella pneumoniae SMART 878; details: for MIC: Klebsiella pneumoniae, SMART878, read-out: Minimal inhibitory concentration
Method: as §1, §2

[8] = tested on: Escherichia coli SMART 1735; details: SMART1735, IMP-59, TEM-1, TAN/XER fixed at 4 µg/mL, XER 8 µg/mL in MEM-XER, read-out: Minimal inhibitory concentration
Method: as §1, §2

[9] = tested on: Escherichia coli SMART 1132; details: SMART1132, IMP-6, CTX-M-2, TAN/XER fixed at 4 µg/mL, XER 8 µg/mL in MEM-XER, read-out: Minimal inhibitory concentration
Method: as §1, §2

[10] = tested on: Escherichia coli E. coli 7 IMP; details: E.COLI7IMP, read-out: Minimal inhibitory concentration
Method: as §1, §2

[11] = tested on: Pseudomonas aeruginosa PA11; details: IMP-10, TAN/XER fixed at 4 µg/mL, XER 8 µg/mL in MEM-XER, read-out: Minimal inhibitory concentration
Method: as §1, §2

[12] = tested on: Pseudomonas aeruginosa C7; details: IMP-7, TAN/XER fixed at 4 µg/mL, XER 8 µg/mL in MEM-XER, read-out: Minimal inhibitory concentration
Method: as §1, §2

[13] = tested on: Enterobacter hormaechei subsp. steigerwaltii SMART 398; details: read-out: Minimal inhibitory concentration
Method: as §1, §2

[14] = tested on: Enterobacter hormaechei subsp. steigerwaltii SMART 1276; details: read-out: Minimal inhibitory concentration
Method: as §1, §2

[15] = tested on: Pseudomonas aeruginosa PA14; details: IMP-18, TAN/XER fixed at 4 µg/mL, XER 8 µg/mL in MEM-XER, read-out: Minimal inhibitory concentration
Method: as §1, §2

[16] = tested on: Klebsiella pneumoniae SMART 882; details: for MIC: Klebsiella pneumoniae, SMART882, read-out: Minimal inhibitory concentration
Method: as §1, §2

[17] = tested on: Pseudomonas aeruginosa PA15; details: IMP-19, TAN/XER fixed at 4 µg/mL, XER 8 µg/mL in MEM-XER, read-out: Minimal inhibitory concentration
Method: as §1, §2

[18] = tested on: Pseudomonas aeruginosa PA16; details: IMP-29, TAN/XER fixed at 4 µg/mL, XER 8 µg/mL in MEM-XER, read-out: Minimal inhibitory concentration
Method: as §1, §2

[19] = tested on: Pseudomonas aeruginosa PA12; details: IMP-13, TAN/XER fixed at 4 µg/mL, XER 8 µg/mL in MEM-XER, read-out: Minimal inhibitory concentration
Method: as §1, §2

[20] = tested on: Klebsiella pneumoniae SMART 1137; details: SMART1137, read-out: Minimal inhibitory concentration
Method: as §1, §2

[21] = tested on: Klebsiella pneumoniae SMART 1131; details: SMART1131, IMP-6, CTX-M-2, TAN/XER fixed at 4 µg/mL, XER 8 µg/mL in MEM-XER, read-out: Minimal inhibitory concentration
Method: as §1, §2

Compound	MIC [1] [µg/mL]	MIC [2] [µg/mL]	MIC [3] [µg/mL]	MIC [4] [µg/mL]	MIC [5] [µg/mL]	MIC [6] [µg/mL]	MIC [7] [µg/mL]	MIC [8] [µg/mL]	MIC [9] [µg/mL]	MIC [10] [µg/mL]	MIC [11] [µg/mL]	MIC [12] [µg/mL]	MIC [13] [µg/mL]	MIC [14] [µg/mL]	MIC [15] [µg/mL]	MIC [16] [µg/mL]	MIC [17] [µg/mL]	MIC [18] [µg/mL]	MIC [19] [µg/mL]	MIC [20] [µg/mL]	other results
CO/N=C(\C(=O)N[C@@H]1C(=O)N2C(C(=O)[O-])=C(C[N+]3(C)CCCC3)CS[C@H]12)c1csc(N)n1 [FEP, cefepime]	128	128	8	> 256	> 256	256	256	8	128	> 256	> 256	> 256	128	> 256	256	256	> 256	16	128	> 256	MIC [21]: 64 µg/mL
C[C@@H](O)[C@H]1C(=O)N2C(C(=O)O)=C(SCCN=CN)C[C@H]12 [IPM, imipenem]	0.5	256	≤ 0.25	128	32	0.5	≤ 0.25	≤ 0.25	≤ 0.25	0.5	256	128	0.5	0.5	128	≤ 0.25	256	16	8	2	MIC [21]: ≤ 0.25 µg/mL
C[C@@H](O)[C@H]1C(=O)N2C(C(=O)O)=C(S[C@@H]3CN[C@H](C(=O)N(C)C)C3)[C@H](C)[C@H]12 [MEM, meropenem]	4	64	0.5	64	32	16	4	0.5	4	1	> 256	256	0.5	2	32	4	64	32	16	128	Minimal inhibitory concentration [6]: 8 µg/mL; Minimal inhibitory concentration ([7]; IMP-26, CTX-M-15, OXA-1, TEM-1 like, TAN/XER fixed at 4 µg/mL, XER 8 µg/mL in MEM-XER): 1 µg/mL; Minimal inhibitory concentration ([16]; IMP-26, CTX-M-15, OXA-1, TAN/XER fixed at 4 µg/mL, XER 8 µg/mL in MEM-XER): 1 µg/mL; MIC [21]: 8 µg/mL
